Results reported in US5340833A, “Urokinase inhibitors” (Eisai Co., Ltd., priority 1992, dated 1994).
Structures can show the parent of a compound that is named as a salt.

These compounds were tested against T1, human plasmin (Homo sapiens, UniProt P00747) (assay: Plasmin Assay). Details: read-out: PLASMIN IC50.
T1 construct: plasmin, the potent general protease produced by cleavage of plasminogen by either urokinase or tPA; purchased American Diagnostica
T1 sequence (P00747 581-810 limits assumed): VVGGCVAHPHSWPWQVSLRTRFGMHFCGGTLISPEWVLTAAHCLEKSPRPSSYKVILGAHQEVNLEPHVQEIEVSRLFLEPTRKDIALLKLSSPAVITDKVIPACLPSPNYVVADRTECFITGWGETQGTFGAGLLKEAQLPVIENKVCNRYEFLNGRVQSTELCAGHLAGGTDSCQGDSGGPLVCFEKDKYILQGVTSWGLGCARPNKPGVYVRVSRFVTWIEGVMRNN
T1 sequence (P00747 97-580 limits assumed): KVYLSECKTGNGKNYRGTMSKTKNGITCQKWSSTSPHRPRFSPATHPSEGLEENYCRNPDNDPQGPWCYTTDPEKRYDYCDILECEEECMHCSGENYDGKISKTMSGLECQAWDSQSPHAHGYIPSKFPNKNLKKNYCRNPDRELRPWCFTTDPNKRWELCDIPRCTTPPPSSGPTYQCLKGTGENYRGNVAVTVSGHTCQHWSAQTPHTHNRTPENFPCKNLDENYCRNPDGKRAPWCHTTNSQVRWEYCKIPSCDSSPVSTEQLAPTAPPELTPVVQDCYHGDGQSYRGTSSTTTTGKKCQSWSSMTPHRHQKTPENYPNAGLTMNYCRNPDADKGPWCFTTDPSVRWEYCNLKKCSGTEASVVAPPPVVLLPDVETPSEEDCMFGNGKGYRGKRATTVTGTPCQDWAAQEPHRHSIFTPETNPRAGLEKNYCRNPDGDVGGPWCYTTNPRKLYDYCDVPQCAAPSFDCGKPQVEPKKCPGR
Type: biochemical
Protocol: (v) A chromogenic pNA assay for plasmin, the potent general protease produced by cleavage of plasminogen by either urokinase or tPA. Although urokinase initiates cellular invasiveness by generating plasmin, the additional importance of plasmin in tPA-mediated fibrinolysis dictates that plasmin itself should be free from inhibition by urokinase inhibitors designed as anti-invasiveness agents. […] All other assay conditions, as well as methods of color quantitation, were carried out as described above for the urokinase direct assay.
For `Cc1cccc2sc(C(=N)N)cc12` [Compound 6, 4-Methylbenzo[b]thiophene-2-carboxamidine hydrochloride], the IC50 was 881 µM.

These compounds were tested against T2, human two-chain tPA (Homo sapiens, UniProt P00750) (assay: tPA Indirect (Plasminogen-Linked) Assay (tPA Direct Assay result where lower)). Details: tPA Indirect Plasminogen-Linked Assay; in rare cases direct assay result if lower; read-out: tPA IC50.
T2 construct: human two-chain tPA was substituted for urokinase; purchased American Diagnostica
T2 sequence (P00750 311-562 limits assumed): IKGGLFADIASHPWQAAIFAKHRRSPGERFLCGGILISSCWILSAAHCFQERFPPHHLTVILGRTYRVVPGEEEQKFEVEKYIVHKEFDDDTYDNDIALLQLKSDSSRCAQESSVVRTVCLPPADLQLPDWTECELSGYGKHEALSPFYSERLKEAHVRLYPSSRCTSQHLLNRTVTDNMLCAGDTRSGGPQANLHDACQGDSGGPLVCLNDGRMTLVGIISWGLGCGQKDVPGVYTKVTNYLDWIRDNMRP
T2 sequence (P00750 36-310 limits assumed): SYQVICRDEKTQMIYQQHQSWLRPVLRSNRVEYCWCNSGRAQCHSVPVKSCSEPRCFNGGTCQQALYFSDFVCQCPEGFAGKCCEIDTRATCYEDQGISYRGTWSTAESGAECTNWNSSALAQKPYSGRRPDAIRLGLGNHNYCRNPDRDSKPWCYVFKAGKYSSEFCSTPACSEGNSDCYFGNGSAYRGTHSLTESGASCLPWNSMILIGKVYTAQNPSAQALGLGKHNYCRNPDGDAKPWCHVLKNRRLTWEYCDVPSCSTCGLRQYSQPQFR
Type: biochemical
From the text: (iv) Both direct and plasminogen-linked pNA assays for tPA, the other mammalian plasminogen activator and the key initiator of blood clot dissolution or fibrinolysis. Since urokinase and tPA share an absolute specificity for the same peptide bond in plasminogen, urokinase inhibitors designed to block cellular invasiveness must be highly specific for urokinase over tPA in order to avoid serious thrombotic side effects secondary to undesired blockage of normal fibrinolysis. […] Spectrozyme tPA®, American Diagnostica) was substituted for urokinase substrate.
With `Cc1cccc2sc(C(=N)N)cc12` [Compound 6, 4-Methylbenzo[b]thiophene-2-carboxamidine hydrochloride] the IC50 was 478 µM.

The compounds below were run against T3, human high molecular weight urokinase (Homo sapiens, UniProt P00749) (assay: Urokinase Direct Assay). Details: read-out: uPA Direct: percentage of residual urokinase activity relative to inhibitor-free controls; heading: uPA Direct: percentage of residual urokinase activity relative to inhibitor-free controls; inhibitor concentration of 1 mM.
T3 construct: human high molecular weight urokinase; purchased American Diagnostica, Greenwich, Conn
Type: biochemical
Protocol: (i) A direct chromogenic assay in which urokinase cleaves a synthetic tripeptide p-nitroanilide (pNA) urokinase substrate.
Incubations were carried out at 37° C. for approximately 2 hours or until adequate yellow color developed. Color was quantitated by measuring absorbance at 405 nm (A405) using a Titertek Multiskan MCC/340 MK II microtiter plate spectrophotometer.
With `N=C(N)c1cc2c(SCc3ccccc3)cccc2s1` [Compound 60, 4-(Benzylthio)benzo[b]thiophene-2-carboxamidine hydrochloride] the residual urokinase activity at 1000 µM was 1.3%. Work on `N=C(N)c1cc2cc(-c3cccs3)ccc2s1` [Compound 127, 5-(Thien-2-yl)benzo[b]thiophene-2-carboxamidine hydrochloride] yielded a residual urokinase activity at 1000 µM of 1.1%. For `N=C(N)c1cc2c(C#Cc3ccccc3)cccc2s1` [Compound 76, 4-(Phenylethynyl)benzo[b]thiophene-2-carboxamidine hydrochloride], the residual urokinase activity at 1000 µM was 1.1%. In the case of `COc1c(Br)cc(Br)c2sc(C(=N)N)cc12` [Compound 311, 5,7-Dibromo-4-methoxybenzo[b]thiophene-2-carboxamidine hydrochloride], the residual urokinase activity at 1000 µM is reported as 18%. In the case of `N=C(N)c1cc2c(C=CC3CC3)cccc2s1` [Compound 34, 4-(E/Z-2-Cyclopropylethenyl)benzo[b]thiophene-2-carboxamidine. hydrochloride], the residual urokinase activity at 1000 µM is reported as 0.46%. Compound `CCC(C)Cc1cccc2sc(C(=N)N)cc12` (racemic) [Compound 11, 4-([R/S]-2-Methylbutyl)benzo[b]thiophene-2-carboxamidine hydrochloride] has a residual urokinase activity at 1000 µM of 2.3%. `N=C(N)c1cc2c(-c3cccc4sc(C(=N)N)cc34)cccc2s1` [Compound 52, Bis-(2-carboxamidinobenzo[b]thien-4-yl) bis-hydrochloride] was tested, and the residual urokinase activity at 1000 µM was 2.7%. With `N=C(N)c1cc2cc3ccccc3cc2s1` [Compound 313, Naphtho[2,3-b]thiophene-2-carboxamidine hydrochloride] the residual urokinase activity at 1000 µM was 11%. `N=C(N)c1cc2ccc(I)cc2s1` [Compound 301, 6-Iodobenzo[b]thiophene-2-carboxamidine hydrochloride] gave a residual urokinase activity at 1000 µM of 13.7%. `N=C(N)c1sc2ccccc2c1N` [Compound 306, 3-Aminobenzo[b]thiophene-2-carboxamidine hydrochloride] was tested, and the residual urokinase activity at 1000 µM was 41%. In the case of `N=C(N)c1cc2cscc2s1` [Compound 323, Thieno[3,4-b]thiophene-2-carboxamidine hydrochloride], the residual urokinase activity at 1000 µM is reported as 5.3%. `N=C(N)c1cccc2sccc12` [Compound 317, Benzo[b]thiophene-4-carboxamidine hydrochloride] gave a residual urokinase activity at 1000 µM of 90%. In the case of `CC(C)(O)C#Cc1cccc2sc(C(=N)N)cc12` [Compound 42, 4-(3-Hydroxy-3-methylbut-1-ynyl)benzo[b]thiophene-2-carboxamidine hydrochloride], the residual urokinase activity at 1000 µM is reported as 0.6%. Work on `N=C(N)c1cc2c(C=C(Br)Br)cccc2s1` [Compound 38, 4-(2,2-Dibromoethenyl)benzo[b]thiophene-2-carboxamidine hydrochloride] yielded a residual urokinase activity at 1000 µM of 4.8%. `N=C(N)c1cc2c(F)cc(Br)cc2s1` [Compound 308, 4-Fluoro-6-bromobenzo[b]thiophene-2-carboxamidine hydrochloride] gave a residual urokinase activity at 1000 µM of 14.5%. `N=C(N)c1cc2cc(CO)ccc2s1` [Compound 131, 5-(Hydroxymethyl)benzo[b]thiophene-2-carboxamidine hydrochloride] was tested, and the residual urokinase activity at 1000 µM was 6.3%. `N=C(N)c1cc2cc(Cl)ccc2s1` [Compound 102, 5-Chlorobenzo[b]thiophene-2-carboxamidine hydrochloride] was tested, and the residual urokinase activity at 1000 µM was 2.9%. `N=C(N)c1cc2c(-c3ccc([N+](=O)[O-])cc3)cccc2s1` [Compound 46, 4-(4-Nitrophenyl)benzo[b]thiophene-2-carboxamidine hydrochloride] was tested, and the residual urokinase activity at 1000 µM was 1%. `N=C(N)c1cc2c(-c3ccc(-c4ccc5c(c4)OCO5)o3)cccc2s1` [Compound 79, 4-[5-(Benzo-1,3-dioxolan-5-yl)fur-2-yl]benzo[b]thiophene-2-carboxamidine hydrochloride] was tested, and the residual urokinase activity at 1000 µM was 1.5%.
